The term EC50 denotes the concentration giving half of the maximal effect.

The experiment in a line: Agonist activity beta2-adrenergic receptor in rat ventricular myocytes assessed as cell contraction following electrical stimulation by optical edge tracking method using photodiode array.
As to `CC[C@H](Cc1ccc(O)cc1)NC[C@H](O)c1cc(O)cc(O)c1`, the EC50 turned out to be 8550 nM.
To `C[C@H](Cc1ccc2ccccc2c1)NC[C@H](O)c1cc(O)cc(O)c1` belongs 133 nM; to `COc1ccc(C[C@@H](C)NC[C@H](O)c2cc(O)cc(O)c2)c2ccccc12`, 16 nM.

These data come from BindingDB's records for doi:10.1016/j.bmc.2009.11.062 (Medical University of Lublin, 2010).
